Measured values from PubChem BioAssay AID1963426 (Molecular Pharmacology Branch, DTP, NCI, 2024).
Several values for one entry are separate records, joined by “and”; a condition that tells them apart may be missing. Equal entries are not always repeated.

Tested on: 186277-243-T-J2-PDC complex spheroid growth, % test/control
Test: Anticancer human tumor 186277-243-T-J2-PDC patient-derived colon adenocarcinoma cell line growth inhibition [Asc]
Conditions: for viability, T/C: stronger effect = lower value; active = viability on the fitted dose curve at most 10% of control; inactive = the rest
Procedure, shortened: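 Complex solid-tumor spheroids incorporating human endothelial and mesenchymal stem cells received single agents or combinations over half-log dilution ranges anchored to clinical Cmax.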

[1] = curve of first compound, second compound 0.03 µM
[2] = curve of first compound, second compound 0.0949 µM
[3] = curve of first compound, second compound 0.3 µM
[4] = curve of first compound, second compound 0.949 µM
[5] = curve of first compound, second compound 3 µM
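Note: spheroids exposed to agents for 7 days.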
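Throughout, for viability, T/C: 100% = DMSO vehicle control wells.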

Cn1ncnc1[C@H]1c2n[nH]c(=O)c3cc(F)cc(c23)N[C@@H]1c1ccc(F)cc1 + CCN1C(C(=O)NC23CCC(C(=O)O)(CC2)CC3)C(c2cccc(Cl)c2F)C2(C(=O)Nc3cc(Cl)ccc32)C12CCCCC2
inactive: viability, T/C (second compound 0.03 µM, first compound 0.000316 µM) 130% | viability, T/C (second compound 0.03 µM, first compound 0.001 µM) 116% | viability, T/C (second compound 0.03 µM, first compound 0.00316 µM) 107% | viability, T/C (second compound 0.03 µM, first compound 0.01 µM) 91.3% | viability, T/C (second compound 0.03 µM, first compound 0.0316 µM) 80.9% | viability, T/C (second compound 0.03 µM, first compound 0.1 µM) 87.2% | viability, T/C (second compound 0.0949 µM, first compound 0.000316 µM) 98.3% | viability, T/C (second compound 0.0949 µM, first compound 0.001 µM) 82.1% | viability, T/C (second compound 0.0949 µM, first compound 0.00316 µM) 87.6% | viability, T/C (second compound 0.0949 µM, first compound 0.01 µM) 77.5% | viability, T/C (second compound 0.0949 µM, first compound 0.0316 µM) 76.5% | viability, T/C (second compound 0.0949 µM, first compound 0.1 µM) 65.8% | viability, T/C (second compound 0.3 µM, first compound 0.000316 µM) 75% | viability, T/C (second compound 0.3 µM, first compound 0.001 µM) 69% | viability, T/C (second compound 0.3 µM, first compound 0.00316 µM) 65.9% | viability, T/C (second compound 0.3 µM, first compound 0.01 µM) 63.6% | viability, T/C (second compound 0.3 µM, first compound 0.0316 µM) 63.1% | viability, T/C (second compound 0.3 µM, first compound 0.1 µM) 59.3% | viability, T/C (second compound 0.949 µM, first compound 0.000316 µM) 52.4% | viability, T/C (second compound 0.949 µM, first compound 0.001 µM) 56.5% | viability, T/C (second compound 0.949 µM, first compound 0.00316 µM) 49.4% | viability, T/C (second compound 0.949 µM, first compound 0.01 µM) 43% | viability, T/C (second compound 0.949 µM, first compound 0.0316 µM) 42% | viability, T/C (second compound 0.949 µM, first compound 0.1 µM) 41.4% | viability, T/C (second compound 3 µM, first compound 0.000316 µM) 30.1% | viability, T/C (second compound 3 µM, first compound 0.001 µM) 32.3% | viability, T/C (second compound 3 µM, first compound 0.00316 µM) 31.9% | viability, T/C (second compound 3 µM, first compound 0.01 µM) 26% | viability, T/C (second compound 3 µM, first compound 0.0316 µM) 22.9% | viability, T/C (second compound 3 µM, first compound 0.1 µM) 25.8%
< 0.316 nM: IC50 [5]
2.14 nM: IC50 [4]
> 100 nM: IC50 [1] | IC50 [2] | IC50 [3]

NC(=O)C(=Cn1cnc(-c2cc(C(F)(F)F)cc(C(F)(F)F)c2)n1)c1cncnc1 + CCN1C(C(=O)NC23CCC(C(=O)O)(CC2)CC3)C(c2cccc(Cl)c2F)C2(C(=O)Nc3cc(Cl)ccc32)C12CCCCC2
active: viability, T/C (second compound 0.3 µM, first compound 0.3 µM) 0.39% | viability, T/C (second compound 0.949 µM, first compound 0.03 µM) 7.03% | viability, T/C (second compound 0.949 µM, first compound 0.0949 µM) 1.37% | viability, T/C (second compound 0.949 µM, first compound 0.3 µM) 0.18% | viability, T/C (second compound 3 µM, first compound 0.00949 µM) 3.76% | viability, T/C (second compound 3 µM, first compound 0.03 µM) 0.85% | viability, T/C (second compound 3 µM, first compound 0.0949 µM) 0.44% | viability, T/C (second compound 3 µM, first compound 0.3 µM) 0.84%
inactive: viability, T/C (second compound 0.03 µM, first compound 0.000949 µM) 111% | viability, T/C (second compound 0.03 µM, first compound 0.003 µM) 113% | viability, T/C (second compound 0.03 µM, first compound 0.00949 µM) 81.5% | viability, T/C (second compound 0.03 µM, first compound 0.03 µM) 60.4% | viability, T/C (second compound 0.03 µM, first compound 0.0949 µM) 56.3% | viability, T/C (second compound 0.03 µM, first compound 0.3 µM) 5.86% | viability, T/C (second compound 0.0949 µM, first compound 0.000949 µM) 109% | viability, T/C (second compound 0.0949 µM, first compound 0.003 µM) 83.3% | viability, T/C (second compound 0.0949 µM, first compound 0.00949 µM) 51.7% | viability, T/C (second compound 0.0949 µM, first compound 0.03 µM) 48% | viability, T/C (second compound 0.0949 µM, first compound 0.0949 µM) 46.1% | viability, T/C (second compound 0.0949 µM, first compound 0.3 µM) 2.91% | viability, T/C (second compound 0.3 µM, first compound 0.000949 µM) 65.2% | viability, T/C (second compound 0.3 µM, first compound 0.003 µM) 58.8% | viability, T/C (second compound 0.3 µM, first compound 0.00949 µM) 45.3% | viability, T/C (second compound 0.3 µM, first compound 0.03 µM) 34.1% | viability, T/C (second compound 0.3 µM, first compound 0.0949 µM) 14% | viability, T/C (second compound 0.949 µM, first compound 0.000949 µM) 44.6% | viability, T/C (second compound 0.949 µM, first compound 0.003 µM) 40.1% | viability, T/C (second compound 0.949 µM, first compound 0.00949 µM) 25.3% | viability, T/C (second compound 3 µM, first compound 0.000949 µM) 24.1% | viability, T/C (second compound 3 µM, first compound 0.003 µM) 20.6%
< 0.949 nM: IC50 [4] | IC50 [5]
70.4 nM: IC50 [1]
6.95 nM: IC50 [3]
23.4 nM: IC50 [2]

COc1c(OCCCN2CCOCC2)ccc2c3n(c(=NC(=O)c4cnc(N)nc4)nc12)CCN3 + Cc1c(S(C)(=O)=O)c(-c2cc(F)cc(N3CCN(c4ccc(NS(=O)(=O)c5ccc(NC(CCN6CCC(C(=O)OCCCP(=O)(O)O)CC6)CSc6ccccc6)c(S(=O)(=O)C(F)(F)F)c5)cc4)CC3)c2)c(-c2ccc(Cl)cc2)n1C(C)C
active: viability, T/C (second compound 0.1 µM, first compound 1 µM) 8.11% | viability, T/C (second compound 0.316 µM, first compound 0.316 µM) 7.34% | viability, T/C (second compound 0.316 µM, first compound 1 µM) 4.21% | viability, T/C (second compound 1 µM, first compound 0.316 µM) 6.19% | viability, T/C (second compound 1 µM, first compound 1 µM) 2% | viability, T/C (second compound 3.16 µM, first compound 0.1 µM) 15.7% | viability, T/C (second compound 3.16 µM, first compound 0.316 µM) 2.68% | viability, T/C (second compound 3.16 µM, first compound 1 µM) 1.29% | viability, T/C (second compound 10 µM, first compound 0.316 µM) 4.11% | viability, T/C (second compound 10 µM, first compound 1 µM) 1.39%
inactive: viability, T/C (second compound 0.1 µM, first compound 0.00316 µM) 107% | viability, T/C (second compound 0.1 µM, first compound 0.01 µM) 101% | viability, T/C (second compound 0.1 µM, first compound 0.0316 µM) 53.2% | viability, T/C (second compound 0.1 µM, first compound 0.1 µM) 31.5% | viability, T/C (second compound 0.1 µM, first compound 0.316 µM) 12.4% | viability, T/C (second compound 0.316 µM, first compound 0.00316 µM) 98% | viability, T/C (second compound 0.316 µM, first compound 0.01 µM) 98.1% | viability, T/C (second compound 0.316 µM, first compound 0.0316 µM) 53.2% | viability, T/C (second compound 0.316 µM, first compound 0.1 µM) 24.9% | viability, T/C (second compound 1 µM, first compound 0.00316 µM) 95.9% | viability, T/C (second compound 1 µM, first compound 0.01 µM) 84.1% | viability, T/C (second compound 1 µM, first compound 0.0316 µM) 50.3% | viability, T/C (second compound 1 µM, first compound 0.1 µM) 21.9% | viability, T/C (second compound 3.16 µM, first compound 0.00316 µM) 91.7% | viability, T/C (second compound 3.16 µM, first compound 0.01 µM) 99.2% | viability, T/C (second compound 3.16 µM, first compound 0.0316 µM) 42.8% | viability, T/C (second compound 10 µM, first compound 0.00316 µM) 82.4% | viability, T/C (second compound 10 µM, first compound 0.01 µM) 83.9% | viability, T/C (second compound 10 µM, first compound 0.0316 µM) 48% | viability, T/C (second compound 10 µM, first compound 0.1 µM) 15.5%
31.8 nM: IC50 (curve of first compound, second compound 10 µM)
43.4 nM: IC50 (curve of first compound, second compound 0.1 µM)
33.8 nM: IC50 (curve of first compound, second compound 1 µM)
27.2 nM: IC50 (curve of first compound, second compound 3.16 µM)
40.2 nM: IC50 (curve of first compound, second compound 0.316 µM)

NC1CCC(NC2CC2c2ccccc2)CC1 (stereo unspecified)
> 100 nM: IC50 (curve of compound)
inactive: viability, T/C (compound 0.000316 µM) 104% and 75.7% and 107% | viability, T/C (compound 0.001 µM) 96.8% and 96.6% and 112% | viability, T/C (compound 0.00316 µM) 101% and 79% and 98.9% | viability, T/C (compound 0.01 µM) 96.4% and 84.1% and 93.7% | viability, T/C (compound 0.0316 µM) 83.8% and 77.6% and 108% | viability, T/C (compound 0.1 µM) 79.2% and 72.9% and 88.8%

C#Cc1c(F)ccc2cc(O)cc(-c3ncc4c(N5CC6CCC(C5)N6)nc(OCC56CCCN5CC(F)C6)nc4c3F)c12 (stereo unspecified)
inactive: viability, T/C (compound 0.0316 µM) 103% and 107% and 88.1% | viability, T/C (compound 0.1 µM) 105% and 88.2% and 66.5% | viability, T/C (compound 0.316 µM) 76.8% and 48.2% and 40.8% | viability, T/C (compound 1 µM) 33.4% and 21.4% and 16.8% | viability, T/C (compound 3.16 µM) 19.4% and 12.1% and 11.2%
12.5% and 8.62% and 7.15%: viability, T/C (compound 10 µM)
649 nM and 306 nM and 204 nM: IC50 (curve of compound)

O=C(c1cc(Cc2n[nH]c(=O)c3ccccc23)ccc1F)N1CCN(C(=O)C2CC2)CC1
inactive: viability, T/C (compound 0.0316 µM) 98.1% and 91.9% and 98.5% | viability, T/C (compound 0.1 µM) 95.8% and 101% and 97.5% | viability, T/C (compound 0.316 µM) 94.8% and 99% and 102% | viability, T/C (compound 1 µM) 95.9% and 94.6% and 98.1% | viability, T/C (compound 3.16 µM) 105% and 117% and 121% | viability, T/C (compound 10 µM) 103% and 112% and 135%
> 10000 nM: IC50 (curve of compound)
